US11958812B2, “3, 5-disubstituted pyridine and 3, 5-disubstituted pyridazine derivatives and pharmaceutical use of same” (MITSUBISHI TANABE PHARMA CORPORATION, priority 2018, dated 2024)

Experiments:
[1] = biological target: T1, ATX activity in plasma (Rattus norvegicus, UniProt Q64610); experiment: Measurement of ATX activity in plasma (ex vivo), rat single administration test; set-up: species or system male Wistar rat
T1 construct: from tissue; host or cells: plasma of male Wistar rats after oral dosing
Experimental: [Measurement of ATX Activity in Plasma (Ex Vivo)]
A compound administration solution prepared by wet pulverization in a mixer mill (type: MM400) for 10 min and adjusting to a given concentration with 0.5% aqueous carboxymethylcellulose solution was orally administered to male Wistar rat (5-week-old when used) at 5 mL/kg. Blood samples were collected from the cervical vein over time at 8 to 24 hr after administration. The blood was heparin-treated using a micro blood collection tube Capiject (CJ-AL, TERUMO CORPORATION), and the plasma was separated by centrifugation (4° C., 12,000 rpm, for 2 min), and preserved at −80° C. The rats after blood sampling were euthanized by exsanguination from the caudal vena cava under isoflurane inhalation anesthesia. The measurement of ATX activity in plasma was evaluated using the concentration of choline in the plasma, which was liberated from lysophosphatidylcholine (substrate of ATX) by the lysophospholipase D activity of ATX, as an index. An equal amount of 2× assay buffer (200 mM Tris-HCl pH9.0, 10 mM MgCl2, 1 M NaCl, 0.1% Triton X-100) is added to plasma (12 μL) and reacted at 37° C. for 6 hr. The reaction mixture (10 μL) after reaction for 6 hr and 45 μL of reagent R^1 solution (100 mM Tris-HCl pH 8.0, 0.5 mM TOOS, 10 U/mL peroxidase, 0.01% Triton X-100) were added and blended and absorbance at 550-700 nm was measured and used as a prevalue. As the standard, choline chloride was used. 1 mM choline chloride was diluted with 2× assay buffer up to 7 steps in 2-fold serial dilution, R^1 solution was treated similarly and the absorbance was measured. Furthermore, 15 μL of reagent R^2 solution (100 mM Tris-HCl pH 8.0, 1 mM 4-aminoantipyrine, 10 U/mL choline oxidase, 0.01% Triton X-100) was added, and the mixture was reacted at room temperature for 10 min, and absorbance at 550-700 nm was measured. The choline concentration per reaction time was calculated from the difference between the absorbance after R^2 solution addition and prevalue measured before R^2 addition and used as ATX activity value. inhibitory activity (%)=100×{1−[choline concentration (μM) of test substance administration group/choline concentration (μM) of solvent control group]} <calculating formula>

[2] = biological target: human recombinant ATX (Homo sapiens, UniProt Q13822); experiment: Enzyme inhibition test (choline release from LPC, Amplex UltraRed fluorescence); type: biochemical; conditions: 200 μM LPC substrate, 1 hr at room temperature, read-out: Experimental Example 1 human ATX IC50
Outline: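 Recombinant human ATX (enzyme solution 0.4 ng/µL) acted on a mix of 200 µM LPC, Amplex UltraRed, peroxidase and choline oxidase in Tris pH 8.0 buffer with BSA and 0.0025% Triton X-100, 1 h at room temperature. Choline was read by fluorescence (Ex 525/Em 598 nm) against a choline chloride standard. IC50 came from % inhibition relative to enzyme-free and inhibitor-free controls.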

`O=C(O)c1ccc2c(c1)CCN2c1cncc(OC[C@H]2CC[C@H](C(F)(F)F)CC2)c1` [Example 12, 1-(5-{[trans-4-(trifluoromethyl)cyclohexyl]methoxy}pyridin-3-yl)-2,3-dihydro-1H-indole-5-carboxylic Acid] was tested, and the “Experimental Example 2 Rat single administration test (inhibitory activity (%) 8 hr after 1 mg/kg oral administration)” value [1] was 76% and the IC50 [2] was 1 nM.

In the case of `O=C(O)CCC1CN(c2cncc(OCc3ccc(OC(F)(F)F)cc3)c2)CCN1CC(F)(F)F` (stereo not drawn) [Example 93], the “Experimental Example 2 Rat single administration test (inhibitory activity (%) 8 hr after 1 mg/kg oral administration)” value [1] is reported as 70% and the IC50 [2] is reported as 39 nM.

With `O=C(O)CC[C@H]1CN(c2cncc(OC[C@H]3CC[C@H](C(F)(F)F)CC3)c2)CCO1` [Example 16, 3-[(2S)-4-(5-{[trans-4-(trifluoromethyl)cyclohexyl]methoxy}pyridin-3-yl)morpholin-2-yl]propanoic Acid] the “Experimental Example 2 Rat single administration test (inhibitory activity (%) 8 hr after 1 mg/kg oral administration)” value [1] was 89% and the IC50 [2] was 13 nM.
